The source of these data is the NIST ThermoML archive (doi:10.1021/je400803f).

The conditions of this series: 101.33 kPa, Liquid, Vibrating tube method.

Numbers after ± are expanded uncertainties.

As to `CCCCN(C=O)CCCC` [N,N-dibutylformamide], the mass density stood at 879.05 ± 0.23 kg/m3 (293.15 K); 875.12 ± 0.23 kg/m3 (298.15 K); 871.17 ± 0.23 kg/m3 (303.15 K); 867.15 ± 0.23 kg/m3 (308.15 K); 863.11 ± 0.23 kg/m3 (313.15 K); 859.01 ± 0.23 kg/m3 (318.15 K). The mass density (323.15 K) worked out at 854.82 ± 0.23 kg/m3.

Turning to `CCCC[N+]1(C)CCCC1.FC(F)(F)C(F)(F)[P-](F)(F)(F)(C(F)(F)C(F)(F)F)C(F)(F)C(F)(F)F`, the mass density (293.15 K) came to 1588.56 ± 0.76 kg/m3; the mass density (298.15 K) was 1583.15 ± 0.76 kg/m3; the mass density (303.15 K) is on record as 1577.67 ± 0.75 kg/m3; the mass density (308.15 K) is reported as 1572.16 ± 0.75 kg/m3; the mass density (313.15 K) is recorded as 1566.62 ± 0.74 kg/m3; the mass density (318.15 K) was determined as 1561.06 ± 0.74 kg/m3. Moreover, the mass density (323.15 K) was 1555.48 ± 0.73 kg/m3.

As to `CN(C)C=O` [dimethylformamide], the mass density amounted to 948.72 ± 0.23 kg/m3 (293.15 K); 943.86 ± 0.23 kg/m3 (298.15 K); 939 ± 0.23 kg/m3 (303.15 K); 934.08 ± 0.23 kg/m3 (308.15 K); 929.13 ± 0.23 kg/m3 (313.15 K); 924.06 ± 0.23 kg/m3 (318.15 K). Moreover, the mass density (323.15 K) amounted to 918.96 ± 0.23 kg/m3.

For `CNC=O` [N-methylformamide], the mass density (293.15 K) is given as 1003.35 ± 0.23 kg/m3; the mass density (298.15 K) stood at 998.91 ± 0.23 kg/m3; the mass density (303.15 K) came to 994.49 ± 0.23 kg/m3; the mass density (308.15 K) was determined as 990.01 ± 0.23 kg/m3; the mass density (313.15 K) was 985.47 ± 0.23 kg/m3; the mass density (318.15 K) was 980.88 ± 0.23 kg/m3. The mass density (323.15 K) is given as 976.24 ± 0.23 kg/m3.

In the case of `CC(=O)N(C)C` [N,N-dimethylethanamide], the mass density reads like this: (293.15 K) 940.92 ± 0.23 kg/m3; (298.15 K) 936.3 ± 0.23 kg/m3; (303.15 K) 931.62 ± 0.23 kg/m3; (308.15 K) 926.89 ± 0.23 kg/m3; (313.15 K) 922.09 ± 0.23 kg/m3; (318.15 K) 917.23 ± 0.23 kg/m3. Also, the mass density (323.15 K) is 912.23 ± 0.23 kg/m3.

As for `CCNC=O` [N-ethylformamide], the mass density reads like this: (293.15 K) 951.59 ± 0.07 kg/m3; (298.15 K) 947.48 ± 0.07 kg/m3; (303.15 K) 943.29 ± 0.07 kg/m3; (308.15 K) 939.04 ± 0.07 kg/m3; (313.15 K) 934.78 ± 0.07 kg/m3; (318.15 K) 930.45 ± 0.07 kg/m3. For the same molecule, the mass density (323.15 K) was determined as 926.06 ± 0.08 kg/m3.

What is called mass density is mass per unit of volume.
